This is an account of results in patent US5310726A, “Lipopeptide compounds” (Merck & Co., Inc., priority 1990, dated 1994).

One data set deals with Candida tropicalis. Put plainly: Microdilution broth assay, minimum fungicidal concentration. Format: cell-based. The following applies: Candida tropicalis MY 1012. How it is done: The usefulness of the compounds as antifungal agents particularly, for the treatment of mycotic infections may be illustrated with minimum fungicidal concentration (MFC) results with Compound IA in tests against Candida albicans, Candida tropicalis and Candida parapsilosis. The activity may be seen in a microdilution broth assay employing Yeast Nitrogen Base (Difco) with 10% dextrose (YNBD) as the medium. […] The compounds were then diluted to 256 μg/ml in YNBD. 0.15 ml of the suspension was dispensed to the top row of a 96-well plate (each well containing 0.15 ml of YNDB) resulting in a drug concentration of 128 μg/ml. Two-fold dilutions were then made from the top row to obtain final drug concentrations ranging from 128 to 0.06 μg/ml. The yeast cultures, maintained on Sabouraud dextrose agar were transferred to YM broth (Difco) and incubated overnight at 35° C. with shaking (250 rpm). After incubation, each culture was diluted in sterile water to yield a final concentration of 1-5×10^6 colony forming units (CFU)/ml. 96-well microplates were inoculated using a MIC-2000 (Dynatech) which delivers […] per well yielding a final inoculum per well of 1.5-7.5×10^3 cells. […] The minimum inhibitory concentrations (MICS) were recorded as the lowest concentrations of drug showing no visible growth. […] The inoculated trays were incubated 24 hours at 28° C. and then read. […]
(Broth dilution looks for growth in wells or tubes with falling amounts of substance.)

For another data set, the system named is Candida albicans. The data set is described as above. Format: cell-based. An excerpt:
(§1) The usefulness of the compounds as antifungal agents particularly, for the treatment of mycotic infections may be illustrated with minimum fungicidal concentration (MFC) results with Compound IA in tests against Candida albicans, Candida tropicalis and Candida parapsilosis.
(§2) The activity may be seen in a microdilution broth assay employing Yeast Nitrogen Base (Difco) with 10% dextrose (YNBD) as the medium. In carrying out the assay, Compound Ia was solubilized in 10 percent dimethyl sulfoxide (DMSO) and diluted to 2560 μg/ml. The compounds were then diluted to 256 μg/ml in YNBD. 0.15 ml of the suspension was dispensed to the top row of a 96-well plate (each well containing 0.15 ml of YNDB) resulting in a drug concentration of 128 μg/ml. Two-fold dilutions were then made from the top row to obtain final drug concentrations ranging from 128 to 0.06 μg/ml.
(§3) The yeast cultures, maintained on Sabouraud dextrose agar were transferred to YM broth (Difco) and incubated overnight at 35° C. with shaking (250 rpm). After incubation, each culture was diluted in sterile water to yield a final concentration of 1-5×10^6 colony forming units (CFU)/ml.
(§4) 96-well microplates were inoculated using a MIC-2000 (Dynatech) which delivers […] per well yielding a final inoculum per well of 1.5-7.5×10^3 cells. The microplates were incubated at 35° C. for 24 hours. The minimum inhibitory concentrations (MICS) were recorded as the lowest concentrations of drug showing no visible growth.
(§5) After recording the MIC, the plates were shaken to resuspend the cells. Thereafter, […] samples from the wells in the 96-well microplate were transferred to a single well tray containing Sabouraud dextrose agar. The inoculated trays were incubated 24 hours at 28° C. and then read. The MFC is defined as the lowest concentration of drug showing no growth or less than 4 colonies per spot.

The test system of another data set is Candida parapsilosis. The data set is described as above. It is filed as cell-based.
From the text: as §1, §2, §3, §4, §5

A short description of data set [1]: Stability in aqueous media. It is filed as physicochemical. The following applies: physiological pH range.

In the case of “1-[4-hydroxy-N^2 -(10,12-dimethyl-1-oxo-tetradecyl)ornithine]-4-[3-hydroxy-homotyrosine]-5- [3-hydroxy-glutamine]echinocandin B [Compound Ia]”, the “Minimum Fungicidal Concentration” value was found to be 1 µg/mL in the data set on Candida tropicalis; 0.5 µg/mL with Candida albicans (Candida albicans MY 1028); 1 µg/mL in the data set on Candida albicans (Candida albicans MY 1055); 2 µg/mL in the data set on Candida albicans (Candida albicans MY 1208); 0.25 µg/mL in the data set on Candida albicans (Candida albicans MY 1585); 0.25 µg/mL with Candida albicans (Candida albicans MY 1750). Besides, the “Minimum Fungicidal Concentration” value in the data set on Candida albicans (Candida albicans MY 1783) stood at 0.5 µg/mL; in the data set with Candida parapsilosis (Candida parapsilosis MY 1008) it was 8 µg/mL; in the data set with Candida parapsilosis (Candida parapsilosis MY 1010), 4 µg/mL. In addition, the “stability in aqueous medium” value in data set [1] is recorded as “exhibit the stability in aqueous medium desired”.

For “1-[4-hydroxy-N^2 -(10,12-dimethyl-1-oxo-tetradecyl)ornithine]-5-[3-hydroxy-glutamine]echino candin B [Compound Ib]”, the “stability in aqueous medium” value in data set [1] is listed as “exhibit the stability in aqueous medium desired”.
